The text below walks through data of patent publication US5248221A, “Antifouling coating composition comprising lactone compounds, method for protecting aquatic structures, and articles protected against fouling organisms” (Rohm and Haas Company, priority 1992, dated 1993).

Series [1] has as its system cyprid larvae of the barnacle Balanus amphitrite. Nature of the series: Settlement assay for cyprid-stage barnacle larvae (% settlement).
Procedure: All compounds were tested for their ability to inhibit settlement by cyprid larvae of the barnacle Balanus amphitrite . […] Controls consisted of barnacle larvae and filtered seawater added to the dishes or vials without test compound. Dishes were then incubated for 20-24 hrs at 28° C. with light for approximately 15 hours and in darkness for approximately 9 hours. The dishes or vials were then removed from the incubator, examined under a dissecting microscope to determine whether larvae were living or dead. Larvae were then killed by addition of several drops of 10% formalin solution. Settlement rate was quantified as number of larvae that had attached to the dish or vial surface, expressed as a percentage of total larvae in the dish or vial. Experiments were performed in duplicate.
A number of lactones were tested for control of barnacle settlement. All lactones were tested at a concentration of 3×10^-6 M in dishes containing seawater. The larvae were added and the test conducted as described above.
Five ml of each solution were added to duplicate dishes. The larvae were then added to the dishes and the test conducted as described above.
Aliquots of these solutions were taken and added to duplicate dishes. […] The larvae were then added to the dishes and the test conducted as described above.
A series of solutions of a-angelica lactone in seawater at concentrations ranging from 500 μg/ml to 5 ng/ml were prepared. Aliquots of these solutions were taken and added to duplicate dishes. […] The larvae were then added to the dishes and the test conducted as described above.
A solution of 2-coumaranone (25 μg in 50 ml of filtered, aged seawater) was prepared. The larvae were then added to the dishes and the test conducted as described above.
A series of solutions of γ-decalactone in seawater at concentrations ranging from 500 μg/ml to 5 pg/ml were prepared. Aliquots of these solutions were taken and added to duplicate dishes. […] The larvae were then added to the dishes and the test conducted as described above.
A series of solutions of γ-valerolactone in seawater at concentrations ranging from 500 μg/ml to 500 pg/ml were prepared. Aliquots of these solutions were taken and added to duplicate dishes. […] The larvae were then added to the dishes and the test conducted as described above.
Series [2] relates to nauplius stage larvae. Kind of series: whole plant or invertebrate. Conditions: for LC50: Amphibalanus amphitrite, read-out: ED50 (half-maximal inhibition). The method, then:
Toxicity assays were conducted by adding nauplius stage larvae to 50×5 mm polystyrene Petri dishes or glass vials containing 5 ml of 100 kDa iltered seawater. […] Dishes or vials receiving no test compound served as controls. The dishes or vials were incubated at 28° C. with a 15:9 light:dark cycle. […] The number of living and dead larvae were then counted. Probit analysis was used to obtain concentrations corresponding to half-maximal inhibition (EC50 values).

Where [3] appears, read: Table 1, 3×10^-6 M in seawater, dishes, Control 35.

SMILES strings stand for the structures. In brackets after ≈: the same amount, converted by molar mass.

For the molecule `C=C1CCOC1=O` [α-methylene-γ-butyrolactone], the “% Settlement” value was 61% in series [1] (Table 2 (Example 2), 5 ng/ml, Control 62); 62% in series [1] (Table 2 (Example 2), 50 ng/ml, Control 62); 58% in series [1] (Table 2 (Example 2), 500 ng/ml, Control 62); 36% in series [1] (Table 2 (Example 2), 5 μg/ml, Control 62); 0% in series [1] (Table 2 (Example 2), 50 μg/ml, Control 62); 0% in series [1] (Table 2 (Example 2), 500 μg/ml, Control 62). Moreover, the “% Settlement” value is 49% in series [1] (Table 3 (Example 3, second test), 50 ng/ml, Control 66); 53% in series [1] (Table 3 (Example 3, second test), 500 ng/ml, Control 66); 47% in series [1] (Table 3 (Example 3, second test), 5 μg/ml, Control 66); 29% in series [1] (Table 3 (Example 3, second test), 50 μg/ml, Control 66); 5% in series [1] (Table 3 (Example 3, second test), 500 μg/ml, Control 66).

In the case of `O=C1CCCCCO1` [ε-caprolactone, reference compound], in series [1] (setting [3]), the “% Settlement” value stood at 41%.

For the molecule `O=C1Cc2ccccc2O1` [2-coumaranone], the “% Settlement” value in series [1] (Table 6 (Example 6), nominal 5 ng/ml, Control 58) was determined as 54%; in series [1] (Table 6 (Example 6), nominal 50 ng/ml, Control 58), 61%; in series [1] (Table 6 (Example 6), nominal 500 ng/ml, Control 58) it was 59%; in series [1] (Table 6 (Example 6), nominal 5 μg/ml, Control 58), 51%; in series [1] (Table 6 (Example 6), nominal 50 μg/ml, Control 58), 64%; in series [1] (Table 6 (Example 6), nominal 500 μg/ml, Control 58), 0%.

In the case of `CC1=CCC(=O)O1` [α-angelica lactone], the LC50 in series [2] was 70 µg/mL (≈ 714 µM). For the same molecule, the “% Settlement” value was 62% in series [1] (Table 4 (Example 4), 5 ng/ml, Control 62); 65% in series [1] (Table 4 (Example 4), 50 ng/ml, Control 62); 60% in series [1] (Table 4 (Example 4), 500 ng/ml, Control 62); 54% in series [1] (Table 4 (Example 4), 5 μg/ml, Control 62); 39% in series [1] (Table 4 (Example 4), 50 μg/ml, Control 62); 0% in series [1] (Table 4 (Example 4), 500 μg/ml, Control 62). The “% Settlement” value in series [1] (Table 5 (Example 5, second test), 5 ng/ml, Control 66) is on record as 41%; in series [1] (Table 5 (Example 5, second test), 50 ng/ml, Control 66), 53%; in series [1] (Table 5 (Example 5, second test), 500 ng/ml, Control 66), 33%; in series [1] (Table 5 (Example 5, second test), 5 μg/ml, Control 66), 33%; in series [1] (Table 5 (Example 5, second test), 50 μg/ml, Control 66), 3%; in series [1] (Table 5 (Example 5, second test), 500 μg/ml, Control 66), 0%.

Turning to `CCCCC1CCC(=O)O1` (stereo not drawn) [γ-octanolactone], the “% Settlement” value in series [1] (setting [3]) turned out to be 39%.

Consider `CCCCCCC1CCC(=O)O1` (stereo not drawn) [γ-decalactone], for which the LC50 in series [2] is 0.004 µg/mL (≈ 0.0235 µM). The “% Settlement” value was 3% in series [1] (setting [3]); 45% in series [1] (Table 7 (Example 7), 5 pg/ml, Control 66); 52% in series [1] (Table 7 (Example 7), 50 pg/ml, Control 66); 44% in series [1] (Table 7 (Example 7), 500 pg/ml, Control 66); 32% in series [1] (Table 7 (Example 7), 5 ng/ml, Control 66); 25% in series [1] (Table 7 (Example 7), 50 ng/ml, Control 66). For the same molecule, the “% Settlement” value in series [1] (Table 7 (Example 7), 500 ng/ml, Control 66) was found to be 8%; in series [1] (Table 7 (Example 7), 5 μg/ml, Control 66), 25%; in series [1] (Table 7 (Example 7), 50 μg/ml, Control 66), 1%; in series [1] (Table 7 (Example 7), 500 μg/ml, Control 66), 0%.

As to `CC1=C2[C@H]3OC(=O)[C@@H](C)[C@@H]3CC[C@@]2(C)C=CC1=O` [α-santonin], the LC50 in series [2] was found to be 14 µg/mL (≈ 56.8 µM).

For the molecule `CC1CCC(=O)O1` (stereo not drawn) [γ-valerolactone], the “% Settlement” value in series [1] (setting [3]) came to 26%; in series [1] (Table 8 (Example 8), 500 pg/ml, Control 66), 55%; in series [1] (Table 8 (Example 8), 5 ng/ml, Control 66), 43%; in series [1] (Table 8 (Example 8), 50 ng/ml, Control 66), 42%; in series [1] (Table 8 (Example 8), 500 ng/ml, Control 66) it was 48%; in series [1] (Table 8 (Example 8), 5 μg/ml, Control 66), 42%. The “% Settlement” value in series [1] (Table 8 (Example 8), 50 μg/ml, Control 66) is on record as 37%; in series [1] (Table 8 (Example 8), 500 μg/ml, Control 66), 52%.

In the case of `CCCCCCC1CCCC(=O)O1` (stereo not drawn) [δ-undecalactone, reference compound], in series [1] (setting [3]), the “% Settlement” value amounted to 40%.

Turning to `C=C1C(=O)O[C@@H]2C[C@@]3(C)CCC[C@H](C)C3=C[C@H]12` [alantolactone], the “ED50 (half-maximal inhibition)” value in series [2] (glass) was determined as 500 ng/mL (≈ 2.15 µM).
